Test results as given in patent publication US8211929B2, “Pyrimidine derivatives as kinase modulators and method of use” (Exelixis, Inc., priority 2004, dated 2012).
Where two headings read alike, the source gives them in different places.

What was measured:
[1] = target: T1, IGF 3P (Homo sapiens, UniProt P08069); test: IGF1R kinase assay (LCCA), IGF 3P; type: biochemical
T1 construct: human IGF1R kinase domain residues M954-C1367; made in house; host or cells: baculovirus expression (insect cells)
In short: (§1)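 Baculovirus-expressed human IGF1R kinase domain (M954-C1367), 4 nM, with 3 μM ATP and 4 μM poly EY in Tris-HCl pH 7.5 buffer containing MgCl2 and MnCl2, 2 h at ambient temperature. Remaining ATP read by luciferase chemiluminescence; IC50 from 10-point dose-response fitted to a four-parameter equation.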

[2] = target: T2, (Homo sapiens, UniProt P08069); test: IGF1R kinase assay (LCCA), IGF 0P; type: biochemical
T2 construct: human IGF1R kinase domain residues M954-C1367; made in house; host or cells: baculovirus expression (insect cells)
In short: as §1

[3] = IGF1R kinase LCCA assay, IGF 3P
[4] = IGF1R kinase LCCA assay, IGF 0P

T1 sequence (P08069 954-1367): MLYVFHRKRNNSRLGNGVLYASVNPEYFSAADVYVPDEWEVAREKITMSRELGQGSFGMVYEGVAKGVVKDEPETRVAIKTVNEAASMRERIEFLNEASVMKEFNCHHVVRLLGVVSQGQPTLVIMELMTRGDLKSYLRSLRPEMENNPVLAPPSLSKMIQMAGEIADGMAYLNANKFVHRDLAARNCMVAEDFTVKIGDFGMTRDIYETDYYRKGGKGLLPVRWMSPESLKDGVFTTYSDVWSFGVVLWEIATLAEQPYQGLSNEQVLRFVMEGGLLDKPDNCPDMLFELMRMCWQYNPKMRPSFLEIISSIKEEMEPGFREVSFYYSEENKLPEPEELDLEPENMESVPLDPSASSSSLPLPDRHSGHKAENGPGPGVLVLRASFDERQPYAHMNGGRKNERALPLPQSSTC
T2 sequence (P08069 954-1367): as above

**Q.** Which results are given for `CCN(CC)CCNc1cc(Nc2cc(C(C)C)[nH]n2)nc(NCc2cc(-c3ccccc3)no2)n1` [Example 592, N^4-[2-(diethylamino)ethyl]-N^6-[5-(1-methylethyl)-1H-pyrazol-3-yl]-N^2-[(3-phenylisoxazol-5-yl)methyl]pyrimidine-2,4,6-triamine]?
**A.** IC50 [1]: < 50 nM; IC50 [2]: 50 to 500 nM

**Q.** What does the source list for `Brc1cnc(NC2CCNCC2)nc1Nc1cc(C2CC2)[nH]n1` [Example 214]?
**A.** IC50 ([1]; IGF1R kinase LCCA assay): 500 to 5000 nM; IC50 ([2]; IGF1R kinase LCCA assay): > 5000 nM

**Q.** `Brc1cnc(NCc2cc(-c3ccccc3)no2)nc1Nc1cc(-c2ccccc2)n[nH]1` [Example 323] was tested. Which IC50 ([1]; IGF1R kinase LCCA assay) did it give?
**A.** > 5000 nM

**Q.** What about the IC50 ([2]; IGF1R kinase LCCA assay) of the same compound?
**A.** > 5000 nM

**Q.** For `c1ccc(-c2cc(CNc3nc(Nc4cc(C5CC5)n[nH]4)cc(OCCN4CCCC4)n3)on2)cc1` [Example 514], which IC50 [1, 3] is on record?
**A.** < 50 nM

**Q.** And the IC50 [2, 4]?
**A.** 50 to 500 nM

**Q.** `CCN(CC)CCCNc1nc(Nc2ccccc2Cl)nc(Nc2cc(C3CC3)n[nH]2)c1Cl` [Example 66] was tested. Which IC50 ([1]; IGF1R kinase LCCA assay) did it give?
**A.** < 50 nM

**Q.** And the IC50 ([2]; IGF1R kinase LCCA assay)?
**A.** 50 to 500 nM

**Q.** Which results are given for `CCN(CC)CCCNC(=O)c1ccc(Nc2ncc(C)c(Nc3cc(C4CC4)n[nH]3)n2)cc1` [Example 181]?
**A.** IC50 ([1]; IGF1R kinase LCCA assay): 500 to 5000 nM; IC50 ([2]; IGF1R kinase LCCA assay): 500 to 5000 nM

**Q.** `Fc1ccc(Nc2ncc(Br)c(Nc3cc(C4CC4)n[nH]3)n2)c(Br)c1` [Example 121] was tested. Which IC50 ([1]; IGF1R kinase LCCA assay) did it give?
**A.** 50 to 500 nM

**Q.** What about the IC50 ([2]; IGF1R kinase LCCA assay) of the same compound?
**A.** 50 to 500 nM

**Q.** How did the IC50 ([1]; IGF1R kinase LCCA assay) turn out when `Brc1cnc(Nc2ccncc2)nc1Nc1cc(C2CC2)[nH]n1` [Example 316] was run?
**A.** > 5000 nM

**Q.** And the IC50 ([2]; IGF1R kinase LCCA assay)?
**A.** > 5000 nM

**Q.** Which results are given for `Clc1ccc(CCNc2ncc(Br)c(Nc3cc(C4CC4)n[nH]3)n2)cc1` [Example 230]?
**A.** IC50 ([1]; IGF1R kinase LCCA assay): 500 to 5000 nM; IC50 ([2]; IGF1R kinase LCCA assay): > 5000 nM

**Q.** `Cc1cc(Nc2cc(C3CC3)n[nH]2)nc(Nc2cc(F)cc(F)c2)n1` [Example 259] was tested. Which IC50 ([1]; IGF1R kinase LCCA assay) did it give?
**A.** > 5000 nM

**Q.** What about the IC50 ([2]; IGF1R kinase LCCA assay) of the same compound?
**A.** 500 to 5000 nM

**Q.** How did the IC50 [1, 3] turn out when `CCN(CC)CCNC(=O)CCc1ccc(Nc2ncc(Br)c(Nc3cc(C)on3)n2)cc1` [Example 58] was run?
**A.** < 50 nM

**Q.** And the IC50 [2, 4]?
**A.** 500 to 5000 nM

**Q.** For `CC(=O)Nc1ccc(Cl)c(Nc2nccc(Nc3cc(C4CC4)[nH]n3)n2)c1` [Example 227], which IC50 ([1]; IGF1R kinase LCCA assay) is on record?
**A.** 500 to 5000 nM

**Q.** And the IC50 ([2]; IGF1R kinase LCCA assay)?
**A.** 500 to 5000 nM

**Q.** `CC(C)c1cc(CNc2nc(Nc3cc(C4CC4)[nH]n3)cc(N3C[C@H]4C[C@@H]3CN4Cc3ccccc3)n2)on1` [Example 636, N^4-(5-cyclopropyl-1H-pyrazol-3-yl)-N^2-{[3-(1-methylethyl)isoxazol-5-yl]methyl}-6-[(1R,4R)-5-(phenylmethyl)-2,5-diazabicyclo[2.2.1]hept-2-yl]pyrimidine-2,4-diamine] was tested. Which IC50 ([1]; IGF 3P) did it give?
**A.** < 50 nM

**Q.** And the IC50 ([2]; IGF 0P)?
**A.** 50 to 500 nM

**Q.** What does the source list for `Nc1ccc(Nc2nc(Nc3cc(C4CC4)n[nH]3)ncc2Br)cc1` [Example 327]?
**A.** IC50 ([1]; IGF1R kinase LCCA assay): > 5000 nM; IC50 ([2]; IGF1R kinase LCCA assay): > 5000 nM

**Q.** Which results are given for `CNCCc1ccc(Nc2nc(C)cc(Nc3cc(C4CC4)n[nH]3)n2)cc1` [Example 540]?
**A.** IC50 ([1]; IGF1R kinase LCCA assay): 500 to 5000 nM; IC50 ([2]; IGF1R kinase LCCA assay): 500 to 5000 nM

**Q.** Which IC50 ([1]; IGF1R kinase LCCA assay) does the source give for `Cc1cc(Nc2ccnc(Nc3ccc(N4CCOCC4)cc3)n2)no1` [Example 113] here?
**A.** 50 to 500 nM

**Q.** What about the IC50 ([2]; IGF1R kinase LCCA assay) of the same compound?
**A.** 500 to 5000 nM

**Q.** Which results are given for `Nc1ncnc2c1c(-c1ccc(NC(=O)C3(C(=O)Nc4ccc(F)cc4)CC3)cc1)cn2CC1CC2CNCC2C1` (centres unmarked) [Example 347]?
**A.** IC50 ([1]; IGF1R kinase LCCA assay): > 5000 nM; IC50 ([2]; IGF1R kinase LCCA assay): > 5000 nM

**Q.** What does the source list for `Cc1cc(Nc2cc(C3CC3)[nH]n2)nc(NCc2cc(-c3cccc(Br)c3)no2)n1` [Example 542]?
**A.** IC50 ([1]; IGF1R kinase LCCA assay): 50 to 500 nM; IC50 ([2]; IGF1R kinase LCCA assay): 50 to 500 nM

**Q.** `CCCCNc1cc(C)nc(Nc2ccc(N3CCOCC3)cc2)n1` [Example 294] was tested. Which IC50 ([1]; IGF1R kinase LCCA assay) did it give?
**A.** > 5000 nM

**Q.** And the IC50 ([2]; IGF1R kinase LCCA assay)?
**A.** > 5000 nM

**Q.** Which IC50 ([1]; IGF1R kinase LCCA assay) does the source give for `Nc1ncnc2c1c(-c1cccc(OCc3ccccc3)c1)cn2C1CNC1` [Example 348] here?
**A.** 500 to 5000 nM

**Q.** What about the IC50 ([2]; IGF1R kinase LCCA assay) of the same compound?
**A.** > 5000 nM

**Q.** Which results are given for `Cc1cc(Nc2cc(C3CC3)[nH]n2)nc(OCc2cc(-c3ccccc3)no2)n1` [Example 584, N-(5-cyclopropyl-1H-pyrazol-3-yl)-6-methyl-2-{[(3-phenylisoxazol-5-yl)methyl]oxy}pyrimidin-4-amine]?
**A.** IC50 [1]: 500 to 5000 nM; IC50 [2]: 50 to 500 nM

**Q.** Which results are given for `Cc1cc(Nc2cc(C(C)C)[nH]n2)nc(NCc2cc(-c3cccc(Cl)c3)no2)n1` [Example 535]?
**A.** IC50 ([1]; IGF1R kinase LCCA assay): 50 to 500 nM; IC50 ([2]; IGF1R kinase LCCA assay): 50 to 500 nM

**Q.** Which results are given for `Brc1cnc(Nc2cc(C3CC3)n[nH]2)nc1Nc1cc(C2CC2)n[nH]1` [Example 133]?
**A.** IC50 ([1]; IGF1R kinase LCCA assay): 50 to 500 nM; IC50 ([2]; IGF1R kinase LCCA assay): 500 to 5000 nM

**Q.** `Cc1cc(Nc2cc(C3CC3)[nH]n2)nc(NCc2cnc[nH]2)n1` [Example 536] was tested. Which IC50 ([1]; IGF1R kinase LCCA assay) did it give?
**A.** 500 to 5000 nM

**Q.** And the IC50 ([2]; IGF1R kinase LCCA assay)?
**A.** 500 to 5000 nM

**Q.** For `Nc1ncnc2c1c(-c1ccc(NC(=O)C3(C(=O)Nc4ccc(F)cc4)CC3)cc1)cn2CC1CC2CN(C(=O)OCc3ccccc3)CC2C1` (centres unmarked) [Example 357], which IC50 ([1]; IGF1R kinase LCCA assay) is on record?
**A.** > 5000 nM

**Q.** What about the IC50 ([2]; IGF1R kinase LCCA assay) of the same compound?
**A.** > 5000 nM

**Q.** Which results are given for `CCN(CC)CCCNC(=O)c1cc(Nc2cc(C3CC3)[nH]n2)nc(NCc2cc(-c3ccccc3)no2)n1` [Example 529]?
**A.** IC50 ([1]; IGF1R kinase LCCA assay): 50 to 500 nM; IC50 ([2]; IGF1R kinase LCCA assay): 50 to 500 nM

**Q.** Which IC50 ([1]; IGF1R kinase LCCA assay) does the source give for `CCN(CC)CCNC(=O)c1ccc(Nc2nccc(Nc3cc(C4CC4)n[nH]3)n2)cc1` [Example 184] here?
**A.** 500 to 5000 nM

**Q.** And the IC50 ([2]; IGF1R kinase LCCA assay)?
**A.** 500 to 5000 nM

**Q.** What does the source list for `Cc1cc(Nc2nc(NCc3cc(-c4ccccc4)no3)ncc2Br)[nH]n1` [Example 19]?
**A.** IC50 ([1]; IGF1R kinase LCCA assay): 500 to 5000 nM; IC50 ([2]; IGF1R kinase LCCA assay): 500 to 5000 nM
